Measurements from paper PMC6691788, “Design and synthesis of phthalazine-based compounds as potent anticancer agents with potential antiangiogenic activity via VEGFR-2 inhibition” (Journal of Enzyme Inhibition and Medicinal Chemistry, 2019).
“Also recorded” adds a separate entry of the source. Read-outs that look alike come from different tables or passages of the source.

Tests used:
UO-31 = assay: NCI 60 cell panel SRB screen; type: cell-based; settings: Homo sapiens
NCI/ADR-RES = assay: NCI 60 cell panel SRB screen; type: cell-based; settings: Homo sapiens
NCI-H460 = assay: NCI 60 cell panel SRB screen; type: cell-based; settings: Homo sapiens
OVCAR-4 = assay: NCI 60 cell panel SRB screen; type: cell-based; settings: Homo sapiens
IGROV1 = assay: NCI 60 cell panel SRB screen; type: cell-based; settings: Homo sapiens, IGROV-1
NCI-H522 = assay: NCI 60 cell panel SRB screen; type: cell-based; settings: Homo sapiens
SF-539 = assay: NCI 60 cell panel SRB screen; type: cell-based, human; settings: Homo sapiens, SF-539, 5 log dose
A498 = assay: NCI 60 cell panel SRB screen; type: cell-based; settings: Homo sapiens
EKVX = assay: NCI 60 cell panel SRB screen; type: cell-based, human; settings: Homo sapiens, 5 log dose
NCI-H23 = assay: NCI 60 cell panel SRB screen; type: cell-based; settings: Homo sapiens
786-0 = assay: NCI 60 cell panel SRB screen; type: cell-based; settings: Homo sapiens; 786-0, 5 log dose
full NCI 60 cell panel = assay: NCI 60 cell panel SRB screen, whole panel; type: cell-based, human; settings: NCI 5-log dose, full 60 cell panel, read-out: GI50 values, range over the tested cell lines
MCF-7 cells [1] = assay: Cell-cycle analysis by flow cytometry; type: cell-based; settings: MCF-7, at GI50 concentration, 24 h and 48 h
Source text: The effect of compound (7b and 13c) on the normal cell-cycle progression was characterised using flow cytometric analysis of the DNA ploidy in MCF-7 cells using BD […] ^TM software. […] The observed increase in sub-G1 cell population may imply DNA fragmentation and apoptosis as a potential mechanism for 7b/13c-induced cancer cell death.
The cells then were collected by trypsinization, washed with phosphate buffered saline (PBS), and fixed in ice-cold absolute alcohol. Thereafter, cells were stained, using Cycletest^TM Plus DNA Reagent Kit (BD Biosciences, San Jose, CA), according to the manufacturer’s instructions. Cell cycle distribution was determined using a FACS Calibur flow cytometer (BD Biosciences, San Jose, CA).

COLO 205 = assay: NCI 60 cell panel SRB screen; type: cell-based; settings: Homo sapiens
OVCAR-8 = assay: NCI 60 cell panel SRB screen; type: cell-based; settings: Homo sapiens
SK-MEL-28 = assay: NCI 60 cell panel SRB screen; type: cell-based; settings: Homo sapiens
MCF-7 cells [2] = assay: Annexin V-FITC/PI apoptosis detection; type: cell-based; settings: MCF-7, at GI50, 24 h and 48 h
Source text: To further investigate the ability of compounds (7b, 13c and 16a) to induce apoptosis, an Annexin V (conjugated to FITC) apoptosis detection kit was employed. This assay detects phosphatidylserine (PS) expressed on the surface of apoptotic cells and fluoresces green after interacting with the labelled Annexin V. During early apoptosis, membrane asymmetry is lost, and PS translocates from the cytoplasmic side of the membrane to the external leaflet. Propidium iodide (PI), the counter stain used in this assay, has the ability to cross only compromised membranes to intercalate into the DNA. Therefore, PI is used to detect the late stages of apoptosis by the presence of red fluorescence.
Apoptosis was determined by staining cells with Annexin V–fluorescein isothiocyanate (FITC) and counterstaining with propidium iodide (PI) using the Annexin V–FITC/PI apoptosis detection kit (BD PharMingen, San Diego, CA, USA) according to the manufacturer's instructions. […] The cells then were collected by trypsinization and 0.5 × 10^6 cells were washed twice with phosphate-buffered saline (PBS) and stained with 5 μl Annexin V–FITC and 5 μl PI in 1× binding buffer (BD PharMingen) for 15 minutes at room temperature in the dark. Analyses were performed using FACS Calibur flow cytometer (BD Biosciences, San Jose, CA).

SK-MEL-2 = assay: NCI 60 cell panel SRB screen; type: cell-based; settings: Homo sapiens
MDA-MB-435 = assay: NCI 60 cell panel SRB screen; type: cell-based; settings: Homo sapiens
SW-620 = assay: NCI 60 cell panel SRB screen; type: cell-based; settings: Homo sapiens
HL-60(TB) = assay: NCI 60 cell panel SRB screen; type: cell-based; settings: Homo sapiens
RXF 393 = assay: NCI 60 cell panel SRB screen; type: cell-based; settings: Homo sapiens
[3] = 5 log dose, 48 h, read-out: LC50 (the source's name)
[4] = single dose 10 μM, read-out: percent cell growth promotion

SMILES: O=C(Nc1ccc(Cl)cc1)Nc1ccc(Oc2nncc3ccccc23)cc1 [Compound 7b, 1–(4-Chlorophenyl)-3–(4-(phthalazin-1-yloxy)phenyl)urea]
- GI50 (UO-31; UO-31, 5 log dose): 1290 nM
- IC (TGI) (UO-31; UO-31, 5 log dose): 2670 nM
- activity at 10 µM (UO-31; UO-31, single dose 10 μM, read-out: percent cell growth promotion): -51.6%
- GI50 (NCI/ADR-RES; 5 log dose): 2630 nM
- IC (TGI) (NCI/ADR-RES; 5 log dose): > 100000 nM
- CC50 (NCI/ADR-RES; [3]): > 100000 nM
- activity at 10 µM (NCI/ADR-RES; [4]): 37.6%
- GI50 (NCI-H460; NCI-H460, 5 log dose): 2790 nM
- IC (TGI) (NCI-H460; NCI-H460, 5 log dose): 8320 nM
- LC50 (concentration causing 50% cell kill) (NCI-H460; NCI-H460, 5 log dose, 48 h): 45500 nM
- activity at 10 µM (NCI-H460; NCI-H460, single dose 10 μM, read-out: percent cell growth promotion): 21.5%
- GI50 (OVCAR-4; OVCAR-4, 5 log dose): 750 nM
- IC (TGI) (OVCAR-4; OVCAR-4, 5 log dose): 3490 nM
- CC50 (OVCAR-4; OVCAR-4, 5 log dose, 48 h, read-out: LC50 (the source's name)): 17000 nM
- activity at 10 µM (OVCAR-4; OVCAR-4, single dose 10 μM, read-out: percent cell growth promotion): -20.8%
- GI50 (IGROV1; IGROV1, 5 log dose): 1160 nM
- IC (TGI) (IGROV1; IGROV1, 5 log dose): 5000 nM
- CC50 (IGROV1; IGROV1, 5 log dose, 48 h, read-out: LC50 (the source's name)): > 100000 nM
- activity at 10 µM (IGROV1; IGROV1, single dose 10 μM, read-out: percent cell growth promotion): 8.16%
- GI50 (NCI-H522; NCI-H522, 5 log dose): 190 nM
- IC (TGI) (NCI-H522; NCI-H522, 5 log dose): 410 nM
- CC50 (NCI-H522; NCI-H522, 5 log dose, 48 h, read-out: LC50 (the source's name)): 910 nM
- activity at 10 µM (NCI-H522; NCI-H522, single dose 10 μM, read-out: percent cell growth promotion): -46.4%
- GI50 (SF-539): 280 nM
- IC (TGI) (SF-539): 1130 nM
- CC50 (SF-539; 48 h, read-out: LC50 (the source's name)): 3810 nM
- GI50 (A498; A498, 5 log dose): 1500 nM
- IC (TGI) (A498; A498, 5 log dose): 3060 nM
- CC50 (A498; A498, 5 log dose, 48 h, read-out: LC50 (the source's name)): 6260 nM
- activity at 10 µM (A498; A498, single dose 10 μM, read-out: percent cell growth promotion): 24.5%
- GI50 (EKVX): 1610 nM
- IC (TGI) (EKVX): 4500 nM
- LC50 (EKVX; 48 h): > 100000 nM
- GI50 (NCI-H23; NCI-H23, 5 log dose): 750 nM
- IC (TGI) (NCI-H23; NCI-H23, 5 log dose): 2870 nM
- CC50 (NCI-H23; NCI-H23, 5 log dose, 48 h, read-out: LC50 (the source's name)): 9610 nM
- activity at 10 µM (NCI-H23; NCI-H23, single dose 10 μM, read-out: percent cell growth promotion): 0.5%
- GI50 (786-0): 870 nM
- IC (TGI) (786-0): 2350 nM
- GI50 (full NCI 60 cell panel; Homo sapiens, 60 cell): 150 to 8410 nM
- GI50 (full NCI 60 cell panel): 150 to 2810 nM
- effect on cell-cycle progression (MCF-7 cells [1]): induce cell cycle arrest at S phase boundary; also recorded: remarkable disruption in cell cycle profile and cell-cycle arrest at S-phase boundary with concurrent time-dependent increase in pre-G cell population
- GI50 (COLO 205; COLO 205, 5 log dose): 1180 nM
- IC (TGI) (COLO 205; COLO 205, 5 log dose): 2920 nM
- CC50 (COLO 205; COLO 205, 5 log dose, 48 h, read-out: LC50 (the source's name)): 7210 nM
- activity at 10 µM (COLO 205; COLO 205, single dose 10 μM, read-out: percent cell growth promotion): 11.9%
- GI50 (OVCAR-8; OVCAR-8, 5 log dose): 1100 nM
- IC (TGI) (OVCAR-8; OVCAR-8, 5 log dose): 13600 nM
- CC50 (OVCAR-8; OVCAR-8, 5 log dose, 48 h, read-out: LC50 (the source's name)): > 100000 nM
- activity at 10 µM (OVCAR-8; OVCAR-8, single dose 10 μM, read-out: percent cell growth promotion): 19.4%
- GI50 (SK-MEL-28; SK-MEL-28): 420 nM
- IC (TGI) (SK-MEL-28; SK-MEL-28, read-out: TGI): 1650 nM
- activity at 10 µM (SK-MEL-28; SK-MEL-28, read-out: percent cell growth promotion): -31.6%
- CC50 (SK-MEL-28; SK-MEL-28, 5 log dose, 48 h, read-out: LC50 (the source's name)): 5330 nM
- induction of apoptosis (Annexin-V positive cells), in words (MCF-7 cells [2]): increased the percentage of Annexin-V positive cells indicating an early (lower right quadrant) or late (upper right quadrant) apoptosis in a time-dependent manner
- GI50 (SK-MEL-2): 1570 nM
- IC (TGI) (SK-MEL-2; read-out: TGI): 3650 nM
- CC50 (SK-MEL-2; SK-MEL-2, 5 log dose, 48 h, read-out: LC50 (the source's name)): 8500 nM
- GI50 (MDA-MB-435; MDA-MB-435): 290 nM
- IC (TGI) (MDA-MB-435; MDA-MB-435, read-out: TGI): 1070 nM
- activity at 10 µM (MDA-MB-435; MDA-MB-435, read-out: percent cell growth promotion): -33.3%
- CC50 (MDA-MB-435; MDA-MB-435, 5 log dose, 48 h, read-out: LC50 (the source's name)): 5650 nM
- GI50 (SW-620; SW-620, 5 log dose): 340 nM
- IC (TGI) (SW-620; SW-620, 5 log dose): 1060 nM
- CC50 (SW-620; SW-620, 5 log dose, 48 h, read-out: LC50 (the source's name)): 30300 nM
- activity at 10 µM (SW-620; SW-620, single dose 10 μM, read-out: percent cell growth promotion): -30.1%
- GI50 (HL-60(TB); 5 log dose): 1080 nM
- IC (TGI) (HL-60(TB); 5 log dose): 13400 nM
- CC50 (HL-60(TB); [3]): > 100000 nM
- activity at 10 µM (HL-60(TB); [4]): 3.65%
- GI50 (RXF 393; RXF 393, 5 log dose): 310 nM
- IC (TGI) (RXF 393; RXF 393, 5 log dose): 1050 nM
- CC50 (RXF 393; RXF 393, 5 log dose, 48 h, read-out: LC50 (the source's name)): 3740 nM
- activity at 10 µM (RXF 393; RXF 393, single dose 10 μM, read-out: percent cell growth promotion): -91.2%
